Assay results from patent publication US20180071284A1, “PREVENTING OR TREATING VIRAL INFECTION BY INHIBITION OF THE HISTONE METHYLTRANSFERASE EZH1 OR EZH2” (The United States of America, as represented by the …, priority 2015, published 2018).

How the values were obtained:
[1] = tested on: Zika virus (ZIKV); test: Zika virus infection of HFF cells (focus forming units, percent infected cells); type: cell-based
Protocol: FIG. 32 presents line graphs that show the number and size of Focus Forming Units (FFU) after HFF cells were treated with the indicated concentrations of compound 4 for 5 h and infected with ZIKV for 40 h, in accordance with embodiments of the invention.
HFF cells were treated with compound 4 and infected with Zika virus (ZIKV), a member of the flavivirus family.
To determine if pretreatment was required to suppress ZIKV infection, cells were pretreated with compound 4 or were treated 3 h post ZIKV adsorption. While pretreatment was modestly more efficient at suppression of infection at lower compound 4 concentrations, it was not essential to effect significant suppression (FIG. 34).

[2] = tested on: HSV-1; test: HSV-1 viral IE mRNA levels in infected HFF cells; type: cell-based, herpes simplex virus 1 (HSV-1)
Text: The HFF cells were then infected with HSV-1 [2.0 PFU (plaque-forming units) per cell] for 1.5-hrs in the presence of inhibitor or DMSO. […] In the figures, the levels of HSV viral IE (ICP4, ICP22, and ICP27) and cellular control (TBP and SP1) mRNAs are expressed relative to cells treated with DMSO (vehicle). […] The HFF cells were then infected with HSV-1 (2.0, 5.0, and 10.0 PFU per cell) for 1.5-hrs in the presence of the inhibitor or DMSO. The levels of HSV viral IE (ICP0, ICP4, ICP22, and ICP27) and cellular controls (SP1 and TBP) mRNAs are expressed relative to cells treated with DMSO (vehicle). […] The levels of HSV viral IE (ICP0, ICP4, ICP22, and ICP27) and cellular control (SP1 and TBP) mRNAs are expressed relative to cells treated with DMSO (vehicle). […] HFF and Vero cells were then infected with HSV-1 (2.0 PFU per cell) for 1.5-hrs in the presence of inhibitor or DMSO. The levels of HSV viral IE (ICP0, ICP4, ICP22, and ICP27) and cellular control (SP1 and TBP) mRNAs are expressed relative to cells treated with DMSO (vehicle). […] HFF cells were treated with EZH1/2 catalytic inhibitor compound 4 (30 μM) or DMSO for 5-hrs. HFF cells were then mock or infected with HSV-1 (2.0 PFU per cell) for 1.5-hrs in the presence of inhibitor or DMSO. The levels of HSV viral IE (ICP4 and ICP27), control (SP1), and cellular innate interferon signaling (IFN-α, TNF-α, IL-8) mRNAs are expressed as absolute levels (absolute copies). […] HFF cells were treated with the EZH1/2 catalytic inhibitor compound 4 (5 μM) or DMSO for the indicated time as shown in FIG. 12. […] The levels of HSV viral IE (ICP0, ICP4, ICP22, and ICP27), control (TBP, ABAT, APOL3, UTX, and JMJD3), and cellular innate interferon signaling (IFN-α) mRNAs are expressed as ratios relative to cells treated with DMSO (vehicle). In this Example compound 4 was decreased to 5 μM and the duration of pretreatment was increased to 12, 24, and 48-hrs.

[3] = tested on: HSV-1; test: UL29+ single neurons and neuron clusters in explanted trigeminal ganglia; type: cell-based, herpes simplex virus 1 (HSV-1); details: explant 48-hrs; compound 1 35 μM, compound 4 30 μM, ACV 100 μM, ML324 50 μM
Text: (§1) Trigeminal ganglia were fixed in paraformaldehyde and tissue sections were contained with anti-UL29 and DAPI. The HSV E gene UL29 (DNA single strand binding replication protein) was used a marker for viral reactivation. Tissue sections were scored for UL29+ cell clusters (clusters indicate viral spread from the primary neuron to surrounding cells) and for individual neurons representing the primary reactivation event (single) (FIGS. 18 and 19).
as §1, with “costained” for “contained”, “(FIG. 25).” for “(FIGS. 18 and 19).”

[4] = HFF cells treated 5 h, infected with ZIKV for 40 h, dose-dependent

## CC[C@H](C)n1cc(C)c2c(C(=O)NCc3c(C)cc(C)[nH]c3=O)cc(-c3ccc(N4CCNCC4)nc3)cc21 [compound 4, GSK126]
[1]; 1 and 2 dpi
  number of ZIKV infected cells (intracellular staining for ZIKV antigens): reduction
[1]; [4]
  number of ZIKV focus forming units (plaques): significantly reduced
  size of ZIKV focus forming units (plaques): significantly reduced
[1]; pretreated vs treated 3 h post ZIKV adsorption
  requirement of pretreatment for suppression of ZIKV infection: not essential
[2]; 5 μM, pretreatment 12, 24, and 48-hrs
  effect of increasing the duration of pretreatment on HSV IE expression: enhanced the suppression of HSV IE expression
[2]; 30 μM, 5-hrs
  cellular control SP1 mRNA: no impact
[2]; 30 μM, 5-hrs, HSV-1 2.0 PFU per cell 1.5-hrs
  HSV viral IE expression (ICP4 and ICP27 mRNA): represses HSV viral IE expression
[3]
  primary reactivation (UL29+ single neurons): reduced
  secondary spread of HSV (UL29+ neuron clusters): reduced
